According to patent US6355799B1, “Substituted benzene compounds, process for their preparation, and herbicidal and defoliant compositions containing them” (ISK Americas Incorporated, priority 1997, dated 2002):

What was measured:
Assay type in all cases: in vivo
[1] = test system: redroot pigweed (Amaranthus retroflexus, AMARE); assay: Pre-emerge test, greenhouse herbicide activity screening; details: rated 14 days after application, 0 = no damage, 100 = complete death
Procedure, shortened: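 Herbicidal damage is scored 0 (none) to 100 (complete plant death) two weeks after a simulated field spray. Rates span 15–1000 g ai/ha, delivered in acetone at 187 l/ha. For post-emergence treatments, plants have 2–3 leaves and the spray carries 0.25% v/v non-ionic surfactant.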

[2] = test system: barnyardgrass (Echinochloa crus-galli, ECHCG); assay: as above; details: rated 14 days after application, 0 = no damage, 100 = complete death
Procedure, shortened: (§1)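 Sandy loam pots; pre-emerge: sown 1 d pre-spray, surface-watered after, then bottom-watered. Post-emerge: sown 8–21 d before, 2–3 leaf stage, + 0.25% v/v NIS, bottom-watered. Acetone, 187 l/ha track spray, 15–1000 g ai/ha. 0–100 injury score, day 14.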

[3] = test system: common ragweed (Ambrosia artemisizfolia L., AMBEL); assay: as above; details: rated 14 days after application, 0 = no damage, 100 = complete death
Procedure, shortened: as §1

[4] = test system: green foxtail (Setaria viridis, SETVI); assay: as above; details: rated 14 days after application, 0 = no damage, 100 = complete death
Procedure, shortened: as §1

[5] = test system: ivyleaf morningglory (Ipomoea hederacea, IPOHE); assay: as above; details: rated 14 days after application, 0 = no damage, 100 = complete death
Procedure, shortened: as §1

[6] = test system: johnsongrass (Sorghum halepense, SORHA); assay: as above; details: rated 14 days after application, 0 = no damage, 100 = complete death
Procedure, shortened: as §1

[7] = test system: lambsquarters (Chenopodium album, CHEAL); assay: as above; details: rated 14 days after application, 0 = no damage, 100 = complete death
Procedure, shortened: as §1

[8] = test system: large crabgrass (Digitaria sanguinalis, DIGSA); assay: as above; details: rated 14 days after application, 0 = no damage, 100 = complete death
Procedure, shortened: as §1

[9] = test system: sicklepod (Cassia obtusifolia, CASOB); assay: as above; details: rated 14 days after application, 0 = no damage, 100 = complete death
Procedure, shortened: as §1

[10] = test system: velvetleaf (Abutilon theophrasti, ABUTH); assay: as above; details: rated 14 days after application, 0 = no damage, 100 = complete death
Procedure, shortened: as §1

[11] = test system: field corn (Zea mays L., var. Dekalb 535, CORN); assay: Pre-emerge test, crop safety; details: rated 14 days after application, 0 = no damage, 100 = complete death
Procedure, shortened: (§2)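 Rating: 0–100 visual injury, 14 DAA. Application: acetone, 187 l/ha, 15–1000 g ai/ha, flat-fan track sprayer with nozzle 40–45 cm above soil or canopy. Post-emerge runs used 0.25% v/v surfactant on 2–3 leaf plants.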

[12] = test system: upland rice (Oryza sp., var. Tebonnet, RICE); assay: Pre-emerge test, crop safety; details: rated 14 days after application, 0 = no damage, 100 = complete death
Procedure, shortened: as §2

[13] = test system: barnyardgrass (Echinochloa crus-galli, ECHCG); assay: Post-emerge test, greenhouse herbicide activity screening; details: post-emerge, 14 days after application, rating scale 0-100
Procedure, shortened: (§3)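 Each test used a mechanized track sprayer delivering 187 l/ha of acetone solution at 15–1000 g ai/ha. Post-emerge foliage at 2–3 leaves was treated with added 0.25% v/v non-ionic surfactant and bottom-watered only. Injury was assessed on day 14, where 100 means total kill.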

[14] = test system: common ragweed (Ambrosia artemisizfolia L., AMBEL); assay: as above; details: post-emerge, 14 days after application, rating scale 0-100
Procedure, shortened: as §3

[15] = test system: green foxtail (Setaria viridis, SETVI); assay: as above; details: post-emerge, 14 days after application, rating scale 0-100
Procedure, shortened: as §3

[16] = test system: ivyleaf morningglory (Ipomoea hederacea, IPOHE); assay: as above; details: post-emerge, 14 days after application, rating scale 0-100
Procedure, shortened: as §3

[17] = test system: johnsongrass (Sorghum halepense, SORHA); assay: as above; details: post-emerge, 14 days after application, rating scale 0-100
Procedure, shortened: as §3

[18] = test system: lambsquarters (Chenopodium album, CHEAL); assay: as above; details: post-emerge, 14 days after application, rating scale 0-100
Procedure, shortened: as §3

[19] = test system: large crabgrass (Digitaria sanguinalis, DIGSA); assay: as above; details: post-emerge, 14 days after application, rating scale 0-100
Procedure, shortened: as §3

[20] = test system: redroot pigweed (Amaranthus retroflexus, AMARE); assay: as above; details: post-emerge, 14 days after application, rating scale 0-100
Procedure, shortened: as §3

[21] = test system: sicklepod (Cassia obtusifolia, CASOB); assay: as above; details: post-emerge, 14 days after application, rating scale 0-100
Procedure, shortened: as §3

[22] = test system: velvetleaf (Abutilon theophrasti, ABUTH); assay: as above; details: post-emerge, 14 days after application, rating scale 0-100
Procedure, shortened: as §3

[23] = test system: field corn (Zea mays L., var. Dekalb 535, CORN); assay: Post-emerge test, crop safety; details: post-emerge, 14 days after application, rating scale 0-100
Procedure, shortened: as §1

[24] = test system: upland rice (Oryza sp., var. Tebonnet, RICE); assay: Post-emerge test, crop safety; details: post-emerge, 14 days after application, rating scale 0-100
Procedure, shortened: as §1

COc1c(Cl)cc(F)c(-n2c(=O)cc(C(F)(F)F)n(C)c2=O)c1NC(=O)c1ccccc1Cl [2-53]
Pre-emerge Herbicidal Activity, phytotoxicity rating (0-100), AMARE ([1]; 63 g ai/ha): 100
Pre-emerge Herbicidal Activity, phytotoxicity rating (0-100), AMARE ([1]; 250 g ai/ha): 100
Pre-emerge Herbicidal Activity, phytotoxicity rating (0-100), ECHCG ([2]; 63 g ai/ha): 40
Pre-emerge Herbicidal Activity, phytotoxicity rating (0-100), ECHCG ([2]; 250 g ai/ha): 99
Pre-emerge Herbicidal Activity, phytotoxicity rating (0-100), AMBEL ([3]; 63 g ai/ha): 80
Pre-emerge Herbicidal Activity, phytotoxicity rating (0-100), AMBEL ([3]; 250 g ai/ha): 100
Pre-emerge Herbicidal Activity, phytotoxicity rating (0-100), SETVI ([4]; 63 g ai/ha): 100
Pre-emerge Herbicidal Activity, phytotoxicity rating (0-100), SETVI ([4]; 250 g ai/ha): 100
Pre-emerge Herbicidal Activity, phytotoxicity rating (0-100), IPOHE ([5]; 63 g ai/ha): 100
Pre-emerge Herbicidal Activity, phytotoxicity rating (0-100), IPOHE ([5]; 250 g ai/ha): 100
Pre-emerge Herbicidal Activity, phytotoxicity rating (0-100), SORHA ([6]; 63 g ai/ha): 40
Pre-emerge Herbicidal Activity, phytotoxicity rating (0-100), SORHA ([6]; 250 g ai/ha): 100
Pre-emerge Herbicidal Activity, phytotoxicity rating (0-100), CHEAL ([7]; 63 g ai/ha): 100
Pre-emerge Herbicidal Activity, phytotoxicity rating (0-100), CHEAL ([7]; 250 g ai/ha): 100
Pre-emerge Herbicidal Activity, phytotoxicity rating (0-100), DIGSA ([8]; 63 g ai/ha): 90
Pre-emerge Herbicidal Activity, phytotoxicity rating (0-100), DIGSA ([8]; 250 g ai/ha): 100
Pre-emerge Herbicidal Activity, phytotoxicity rating (0-100), CASOB ([9]; 63 g ai/ha): 95
Pre-emerge Herbicidal Activity, phytotoxicity rating (0-100), CASOB ([9]; 250 g ai/ha): 100
Pre-emerge Herbicidal Activity, phytotoxicity rating (0-100), ABUTH ([10]; 63 g ai/ha): 100
Pre-emerge Herbicidal Activity, phytotoxicity rating (0-100), ABUTH ([10]; 250 g ai/ha): 100
Pre-emerge phytotoxicity rating (0-100), crop damage, CORN ([11]; 63 g ai/ha): 25
Pre-emerge phytotoxicity rating (0-100), crop damage, CORN ([11]; 250 g ai/ha): 90
Pre-emerge phytotoxicity rating (0-100), crop damage, RICE ([12]; 63 g ai/ha): 80
Pre-emerge phytotoxicity rating (0-100), crop damage, RICE ([12]; 250 g ai/ha): 90
phytotoxicity rating ECHCG ([13]; 63 g ai/ha): 0
phytotoxicity rating ECHCG ([13]; 250 g ai/ha): 70
phytotoxicity rating AMBEL ([14]; 63 g ai/ha): 70
phytotoxicity rating AMBEL ([14]; 250 g ai/ha): 90
phytotoxicity rating SETVI ([15]; 63 g ai/ha): 20
phytotoxicity rating SETVI ([15]; 250 g ai/ha): 40
phytotoxicity rating IPOHE ([16]; 63 g ai/ha): 90
phytotoxicity rating IPOHE ([16]; 250 g ai/ha): 100
phytotoxicity rating SORHA ([17]; 63 g ai/ha): 0
phytotoxicity rating SORHA ([17]; 250 g ai/ha): 50
phytotoxicity rating CHEAL ([18]; 63 g ai/ha): 95
phytotoxicity rating CHEAL ([18]; 250 g ai/ha): 100
phytotoxicity rating DIGSA ([19]; 63 g ai/ha): 0
phytotoxicity rating DIGSA ([19]; 250 g ai/ha): 20
phytotoxicity rating AMARE ([20]; 63 g ai/ha): 90
phytotoxicity rating AMARE ([20]; 250 g ai/ha): 100
phytotoxicity rating CASOB ([21]; 63 g ai/ha): 70
phytotoxicity rating CASOB ([21]; 250 g ai/ha): 100
phytotoxicity rating ABUTH ([22]; 63 g ai/ha): 100
phytotoxicity rating ABUTH ([22]; 250 g ai/ha): 100
phytotoxicity rating CORN ([23]; 63 g ai/ha): 10
phytotoxicity rating CORN ([23]; 250 g ai/ha): 70
phytotoxicity rating RICE ([24]; 63 g ai/ha): 30
phytotoxicity rating RICE ([24]; 250 g ai/ha): 70
